Target: T1, USP25 (USP25-His6, Boston Biochem E-546) (Homo sapiens, UniProt Q9UHP3)
T1 construct: His6; purchased Boston Biochem E-546
T1 sequence (Q9UHP3 1-1055): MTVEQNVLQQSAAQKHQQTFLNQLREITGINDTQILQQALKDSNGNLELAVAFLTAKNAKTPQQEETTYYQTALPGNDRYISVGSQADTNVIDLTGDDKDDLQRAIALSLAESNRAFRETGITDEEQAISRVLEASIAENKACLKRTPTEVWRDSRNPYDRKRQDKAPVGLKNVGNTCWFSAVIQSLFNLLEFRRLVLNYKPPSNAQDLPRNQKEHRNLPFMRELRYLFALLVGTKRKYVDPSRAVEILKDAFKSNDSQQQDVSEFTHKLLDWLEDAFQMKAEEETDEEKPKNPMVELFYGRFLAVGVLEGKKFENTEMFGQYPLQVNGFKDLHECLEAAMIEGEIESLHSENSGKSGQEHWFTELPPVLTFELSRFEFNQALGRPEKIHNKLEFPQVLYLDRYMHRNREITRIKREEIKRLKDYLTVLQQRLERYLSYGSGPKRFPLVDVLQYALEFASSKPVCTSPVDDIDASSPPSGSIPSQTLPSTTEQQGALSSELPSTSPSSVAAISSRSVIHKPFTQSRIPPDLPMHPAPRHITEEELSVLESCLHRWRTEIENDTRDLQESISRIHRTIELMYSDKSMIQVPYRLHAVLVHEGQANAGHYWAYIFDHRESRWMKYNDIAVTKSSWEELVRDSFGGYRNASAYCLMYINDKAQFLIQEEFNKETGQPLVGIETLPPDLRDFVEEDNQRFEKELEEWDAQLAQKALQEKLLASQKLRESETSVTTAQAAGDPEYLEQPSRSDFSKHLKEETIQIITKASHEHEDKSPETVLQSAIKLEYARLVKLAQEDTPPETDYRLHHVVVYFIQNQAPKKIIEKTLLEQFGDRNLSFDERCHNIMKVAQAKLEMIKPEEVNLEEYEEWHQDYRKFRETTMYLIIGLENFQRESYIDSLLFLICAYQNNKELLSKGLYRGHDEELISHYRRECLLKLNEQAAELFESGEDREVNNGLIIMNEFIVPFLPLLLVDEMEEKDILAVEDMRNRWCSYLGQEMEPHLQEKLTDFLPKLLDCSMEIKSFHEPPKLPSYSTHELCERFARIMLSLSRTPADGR
Test: Ubiquitin-Rhodamine 110 Assay for USP25 Activity, Example A-2
Assay type: biochemical
Conditions: Ubiquitin-Rhodamine 110 assay, Example A-2; read-out: USP25 A-2 IC50 range
How it was run: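 Steps: compound dilutions (top 25 μM, 3-fold, 10 points) were preincubated 30 min with 75 pM USP25-His6; 25 nM Ub-Rh110 substrate was added under initial-velocity conditions; after 45 min at room temperature, 10 mM citric acid stopped the reaction before fluorescence reading.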

SMILES	IC50
Cc1ccc2c(N)c(C(=O)N[C@H]3COc4cc(N5CC6CCC[C@@]6(N)C5)ccc4C3)sc2n1 (stereo partly drawn) [Example 248, N-[(3R)-7-[(3aS)-3a-amino-octahydrocyclopenta[c]pyrrol-2-yl]-3,4-dihydro-2H-1-benzopyran-3-yl]-3-amino-6-methylthieno[2,3-b]pyridine-2-carboxamide]	200 to 2000 nM
Cc1ccc2c(N)c(C(=O)N[C@H]3COc4cc(N5CC6CCC[C@]6(N)C5)ccc4C3)sc2n1 (stereo partly drawn) [Example 249, N-[(3R)-7-[(3aR)-3a-amino-octahydrocyclopenta[c]pyrrol-2-yl]-3,4-dihydro-2H-1-benzopyran-3-yl]-3-amino-6-methylthieno[2,3-b]pyridine-2-carboxamide]	50 to 200 nM
COC[C@@H]1CN(c2cc(F)c3c(c2)OC[C@H](NC(=O)c2sc4nc(C)ccc4c2N)C3)C[C@@H]1N [Example 250, 3-amino-N-[(3R)-7-[(3R,4R)-3-amino-4-(methoxymethyl)pyrrolidin-1-yl]-5-fluoro-3,4-dihydro-2H-1-benzopyran-3-yl]-6-methylthieno[2,3-b]pyridine-2-carboxamide]	200 to 2000 nM
COC[C@H]1CN(c2cc(F)c3c(c2)OC[C@H](NC(=O)c2sc4nc(C)ccc4c2N)C3)C[C@H]1N [Example 251, 3-amino-N-[(3R)-7-[(3S,4S)-3-amino-4-(methoxymethyl)pyrrolidin-1-yl]-5-fluoro-3,4-dihydro-2H-1-benzopyran-3-yl]-6-methylthieno[2,3-b]pyridine-2-carboxamide]	50 to 200 nM
COC[C@@H]1CN(c2ccc3c(c2)CC[C@H](NC(=O)c2sc4nc(C)ccc4c2N)C3)C[C@@H]1N [Example 252, 3-amino-N-[(2S)-6-[(3R,4R)-3-amino-4-(methoxymethyl)pyrrolidin-1-yl]-1,2,3,4-tetrahydronaphthalen-2-yl]-6-methylthieno[2,3-b]pyridine-2-carboxamide]	200 to 2000 nM
COC[C@H]1CN(c2ccc3c(c2)CC[C@H](NC(=O)c2sc4nc(C)ccc4c2N)C3)C[C@H]1N [Example 253, 3-amino-N-[(2S)-6-[(3S,4S)-3-amino-4-(methoxymethyl)pyrrolidin-1-yl]-1,2,3,4-tetrahydronaphthalen-2-yl]-6-methylthieno[2,3-b]pyridine-2-carboxamide]	200 to 2000 nM
CCO[C@@H]1CN(c2ccc3c(n2)CC[C@H](NC(=O)c2sc4nc(C)ccc4c2N)C3)C[C@@H]1N [Example 254, 3-amino-N-[(6S)-2-[(3S,4R)-3-amino-4-ethoxypyrrolidin-1-yl]-5,6,7,8-tetrahydroquinolin-6-yl]-6-methylthieno[2,3-b]pyridine-2-carboxamide]	> 2000 nM
CCO[C@H]1CN(c2ccc3c(n2)CC[C@H](NC(=O)c2sc4nc(C)ccc4c2N)C3)C[C@H]1N [Example 255, 3-amino-N-[(6S)-2-[(3R,4S)-3-amino-4-ethoxypyrrolidin-1-yl]-5,6,7,8-tetrahydroquinolin-6-yl]-6-methylthieno[2,3-b]pyridine-2-carboxamide]	> 2000 nM
Cc1ccc2c(N)c(C(=O)N[C@H]3COc4cc(N5C[C@H](N)C(F)(F)C5)ccc4C3)sc2n1 [Example 256, 3-amino-N-[(3R)-7-[(4S)-4-amino-3,3-difluoropyrrolidin-1-yl]-3,4-dihydro-2H-1-benzopyran-3-yl]-6-methylthieno[2,3-b]pyridine-2-carboxamide]	200 to 2000 nM
Cc1ccc2c(N)c(C(=O)N[C@H]3COc4cc(N5C[C@@H](N)C(F)(F)C5)ccc4C3)sc2n1 [Example 257, 3-amino-N-[(3R)-7-[(4R)-4-amino-3,3-difluoropyrrolidin-1-yl]-3,4-dihydro-2H-1-benzopyran-3-yl]-6-methylthieno[2,3-b]pyridine-2-carboxamide]	50 to 200 nM
Cc1ccc2c(N)c(C(=O)N[C@H]3COc4cc(N5C[C@H](N)C6(COC6)C5)ccc4C3)sc2n1 [Example 258, 3-amino-N-[(3R)-7-[(8R)-8-amino-2-oxa-6-azaspiro[3.4]octan-6-yl]-3,4-dihydro-2H-1-benzopyran-3-yl]-6-methylthieno[2,3-b]pyridine-2-carboxamide]	200 to 2000 nM
Cc1ccc2c(N)c(C(=O)N[C@H]3COc4cc(N5C[C@@H](N)C6(COC6)C5)ccc4C3)sc2n1 [Example 259, 3-amino-N-[(3R)-7-[(8S)-8-amino-2-oxa-6-azaspiro[3.4]octan-6-yl]-3,4-dihydro-2H-1-benzopyran-3-yl]-6-methylthieno[2,3-b]pyridine-2-carboxamide]	200 to 2000 nM
COC[C@@H]1C[C@@H](N)CN1c1ccc2c(c1)OC[C@H](NC(=O)c1sc3nc(C)ccc3c1N)C2 [Example 260, 3-amino-N-[(3R)-7-[(25,4R)-4-amino-2-(methoxymethyl)pyrrolidin-1-yl]-3,4-dihydro-2H-1-benzopyran-3-yl]-6-methylthieno[2,3-b]pyridine-2-carboxamide]	1 to 50 nM
